In patent US9663513B2, “Pyrimidine PDE10 inhibitors” (Merck Sharp & Dohme Corp., priority 2012, dated 2017):

The molecules below were run against human PDE10A2 (Homo sapiens (Human), UniProt Q9Y233) (assay: PDE10 fluorescence polarization (IMAP FP) inhibition assay). Settings: human PDE10A2 from transfected AD293 cells; FAM-labeled cAMP 50 nM; apparent inhibition constant; read-out: PDE10A Ki.
human PDE10A2, sequence (Q9Y233 267-1055): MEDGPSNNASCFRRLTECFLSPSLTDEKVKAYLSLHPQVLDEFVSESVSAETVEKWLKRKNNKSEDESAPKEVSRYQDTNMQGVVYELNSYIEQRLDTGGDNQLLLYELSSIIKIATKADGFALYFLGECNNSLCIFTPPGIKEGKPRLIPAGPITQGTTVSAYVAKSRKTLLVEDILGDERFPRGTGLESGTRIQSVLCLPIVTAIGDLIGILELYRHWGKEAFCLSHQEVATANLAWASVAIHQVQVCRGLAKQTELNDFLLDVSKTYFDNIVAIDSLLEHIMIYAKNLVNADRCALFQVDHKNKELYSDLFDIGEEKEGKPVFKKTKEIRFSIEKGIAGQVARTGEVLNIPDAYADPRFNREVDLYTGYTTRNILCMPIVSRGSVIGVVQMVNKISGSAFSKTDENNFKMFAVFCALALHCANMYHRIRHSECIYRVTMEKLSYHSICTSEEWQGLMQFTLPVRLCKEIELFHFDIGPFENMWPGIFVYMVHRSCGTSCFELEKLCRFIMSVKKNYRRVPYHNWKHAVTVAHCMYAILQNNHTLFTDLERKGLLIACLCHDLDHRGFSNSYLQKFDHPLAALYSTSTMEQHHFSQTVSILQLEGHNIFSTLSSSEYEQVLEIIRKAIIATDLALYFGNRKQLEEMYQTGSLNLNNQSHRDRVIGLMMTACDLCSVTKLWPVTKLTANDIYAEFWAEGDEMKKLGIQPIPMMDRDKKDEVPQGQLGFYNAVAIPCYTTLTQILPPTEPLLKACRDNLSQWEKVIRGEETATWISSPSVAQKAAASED
Format: biochemical
Method in brief: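 Cytoplasmic lysate of AD293 cells transiently expressing human PDE10A2 (enzyme level giving 20% conversion) incubated with 50 nM FAM-cAMP in pH 7.2 Tris/MgCl2 buffer, 30 min at room temperature. IMAP binding solution added, FP read after ≥1 h; 10-point 3-fold compound titrations fitted to a four-parameter equation.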
A Ki of 100 pM was found for `Cc1ncc(-c2cnc(C(C)(C)O)cc2C)c(OC[C@H]2C[C@@H]2c2ccccn2)n1` [Example 118, 2-(4-methyl-5-(2-methyl-4-(((1S,2S)-2-(pyridin-2-yl)cyclopropyl)methoxy)pyrimidin-5-yl)pyridin-2-yl)propan-2-ol] in this work.
A Ki of 10 pM was found for `Cc1ncc([C@H]2CC[C@H](O)CC2)c(OC[C@H]2C[C@H]2c2ccc3ccccc3n2)n1` [Example 192, Trans-4-(2-methyl-4-(((1S,2R)-2-(quinolin-2-yl)cyclopropyl)methoxy)pyrimidin-5-yl)cyclohexanol] in this work.
A Ki of 5600 pM was found for `COc1ccc([C@H]2C[C@@H]2COc2nc(C)ncc2[C@H]2CC[C@@H](O)C2)nc1` [Example 79, (1R,3S)-3-(4-(((1S,2S)-2-(5-methoxypyridin-2-yl)cyclopropyl)methoxy)-2-methylpyrimidin-5-yl)cyclopentanol] in this work.
A Ki of 2920 pM was found for `Cc1ccnc([C@H]2C[C@@H]2COc2nc(C)ncc2-c2cn(C)nc2C(C)O)c1` (stereo partly drawn) [Example 160, 1-(1-methyl-4-(2-methyl-4-(((1S,2S)-2-(4-methylpyridin-2-yl)cyclopropyl)methoxy)pyrimidin-5-yl)-1H-pyrazol-3-yl)ethanol] in this work.
A Ki of 4340 pM was found for `Cc1ccc([C@H]2C[C@@H]2COc2nc(C)ncc2-c2cnnc(Br)c2)nc1` [Example 59, 3-bromo-5-(2-methyl-4-(((1S,2S)-2-(5-methylpyridin-2-yl)cyclopropyl)methoxy)pyrimidin-5-yl)pyridazine] in this work.
A Ki of 500 pM was found for `CCc1ccc([C@@H]2C[C@@H]2COc2nc(C)ncc2[C@H]2CC[C@H](O)CC2)nc1` [Example 196, Trans-4-(4-(((1S,2R)-2-(5-ethylpyridin-2-yl)cyclopropyl)methoxy)-2-methylpyrimidin-5-yl)cyclohexanol] in this work.
A Ki of 560 pM was found for `Cc1cccc([C@H]2C[C@@H]2COc2nc(C)ncc2-c2cn(C)nc2C(C)O)n1` (stereo partly drawn) [Example 158, 1-(1-methyl-4-(2-methyl-4-(((1S,2S)-2-(6-methylpyridin-2-yl)cyclopropyl)methoxy)pyrimidin-5-yl)-1H-pyrazol-3-yl)ethanol] in this work.
A Ki of 2360 pM was found for `COc1ccc([C@H]2C[C@@H]2COc2nc(C)ncc2-c2c[nH]oc2=O)nc1` [Example 242, 4-(4-(((1S,2S)-2-(5-methoxypyridin-2-yl)cyclopropyl)methoxy)-2-methylpyrimidin-5-yl)isoxazol-5(2H)-one] in this work.
A Ki of 1750 pM was found for `COc1ccc([C@H]2C[C@@H]2COc2nc(C)ncc2-c2ccc([S+](C)[O-])nc2)nc1` (single isomer, unassigned) [Example 64] in this work.
A Ki of 460 pM was found for `Cc1ccc([C@H]2C[C@@H]2COc2nc(C)ncc2-c2cc(F)cc(F)c2)nc1` [Example 7, 5-(3,5-difluorophenyl)-2-methyl-4-(((1S,2S)-2-(5-methylpyridin-2-yl)cyclopropyl)methoxy)pyrimidine] in this work.
A Ki of 20 pM was found for `Cc1ccc(-c2cnc(C)nc2OC[C@H]2C[C@@H]2c2ccc3ccccc3n2)cn1` [Example 42, 2-((1S,2S)-2-((2-methyl-5-(6-methylpyridin-3-yl)pyrimidin-4-yloxy)methyl)cyclopropyl)quinoline] in this work.
A Ki of 1410 pM was found for `COc1ccc([C@H]2C[C@@H]2COc2nc(C)ncc2-c2ccc(C(N)=O)nc2)nc1` [Example 105, 5-(4-(((1S,2S)-2-(5-methoxypyridin-2-yl)cyclopropyl)methoxy)-2-methylpyrimidin-5-yl)picolinamide] in this work.
A Ki of 60 pM was found for `Cc1ncc(-c2cnc3ccccn23)c(OC[C@H]2C[C@@H]2c2ccc3ccccc3n2)n1` [Example 133, 2-((1S,2S)-2-((5-(imidazo[1,2-a]pyridin-3-yl)-2-methylpyrimidin-4-yloxy)methyl)cyclopropyl)quinoline] in this work.
A Ki of 1640 pM was found for `COc1ccc([C@H]2C[C@@H]2COc2nc(C)ncc2-c2ccc(-c3nnn(C)n3)nc2)nc1` [Example 230, 4-(((1S,2S)-2-(5-methoxypyridin-2-yl)cyclopropyl)methoxy)-2-methyl-5-(6-(2-methyl-2H-tetrazol-5-yl)pyridin-3-yl)pyrimidine] in this work.
